Data reported in US20230365577A1, “Photodynamic Therapy and Diagnosis” (RMW CHO Group Limited, priority 2020, published 2023).
Structures can show the parent of a compound that is named as a salt. Where two headings read alike, the source gives them in different places.

How the values were obtained:
[1] = Singlet oxygen (1O2) production rate; assay type: physicochemical
Source text: The production of singlet oxygen (^1O2), cellular phototoxicity and light-independent cytotoxicity (“dark toxicity”) of a number of phyllochlorin analogues were compared against chlorin e4 disodium and Talaporfin sodium (mono-L-aspartyl chlorin e6), the active ingredient of Laserphyrin™.

[2] = system: SKOV3 ovarian cancer cells; experiment: Phototoxicity in SKOV3 cells (652 nm laser, AlamarBlue viability); assay type: cell-based, Human; conditions: read-out: Cellular Toxicity: Phototoxicity IC90, SKOV3, 24 h uptake, 652 nm laser 50 mW/cm2 5 mins (15 J/cm2), viability 24 h later
Description: (§1) Human ovarian cancer cell line SKOV3 (ATCC #HTB-77) was maintained in Dulbecco's Modified Eagle Medium/Nutrient Mixture F-12 (DMEM/F-12), supplemented with 10% v/v Fetal Bovine Serum, 100 U/mL penicillin and 100 µg/mL streptomycin. Monolayer cultures were grown in a humidified incubator at 37° C. with 5% CO2.
(§2) For in vitro experiments, photosensitizers (stock solution 5.5 mM in 100% DMSO) were diluted in cell culture media (Dulbecco's Modified Eagle Medium/Nutrient Mixture F-12) supplemented with 10% v/v Fetal Bovine Serum, 100 U/mL penicillin, 100 µg/mL streptomycin and 10% w/v Kollidon-12. Once cells had reached ˜80% confluence, spent media was replaced with media containing photosensitizer and cells were incubated for the desired period of time to allow photosensitizer uptake.
(§3) SKOV3 cells were seeded in 96-well black wall plates (Greiner #655090) at a cell density of 5000 cells in 100 μl culture medium per well. On reaching ˜60% confluence, so media was aspirated and replaced with fresh media containing the relevant phyllochlorin analogue from 0-100 μM in DMSO. Cells were incubated for a further 24 hours, allowing uptake of phyllochlorin analogues.
To test for phototoxicity, cells incubated with phyllochlorin analogues (0-10 μM in DMSO) had culture media replaced after 24 hours (as above) and were then exposed to a 652 nm laser (Invion) with laser density at 50 mW/cm^2 for 5 mins (total 15 J/cm^2). Following activation, cells were cultured for a further 24 hours. Media was then replaced with fresh media containing AlamarBlue, and % viable cells remaining assessed as above. Controls included cells treated with phyllochlorin analogues but not activated by laser light; cells without phyllochlorin analogue treatment but with laser light; and untreated controls. All measurements were made in quadruplicate.
(§4) For comparative purposes, phyllochlorin analogues were tested and compared against both chlorin e4 disodium and Talaporfin sodium, a clinically approved photosensitizer used in the photodynamic treatment of lung cancers. Phototoxicity IC90 values and dark toxicity IC10 values were calculated using a log[inhibitor]-vs normalized response dose curve with variable slope, using the formula Y=100/(1+(IC90/X)^HillSlope (phototoxicity IC90) or Y=100/(1+(IC10/X)^HillSlope (dark toxicity IC10).

[3] = system: SKOV3 ovarian cancer cells; experiment: Inherent cytotoxicity (dark toxicity) in SKOV3 cells (AlamarBlue viability); assay type: cell-based, Human; conditions: human, 24 h
Description: as §1, §2
as §3, with “confluence,” for “confluence, so”
To test for inherent cytotoxicity (i.e. “dark toxicity”) of the phyllochlorin analogue the culture media was replaced after 24 hours with fresh media containing 10% (v/v) AlamarBlue Cell Viability Reagent (ThermoFisher) and cells incubated at 37° C. for 6 hours. Untreated cells were used as a control. Fluorescence (Ex 555 nm/Em 596 nm) was measured using a Cytation 3 Multimode Plate Reader (Biotek), and cytotoxicity assessed according to the % viable cells remaining. All measurements were made in quadruplicate.
as §4

SKOV3 cells = experiment: Cellular uptake and retention (intrinsic fluorescence); assay type: cell-based, Human; conditions: for Uptake and clearance, comparison of the two salt forms: SKOV3, 24 hours uptake then 24 hours clearance
Description: Based on the increased phototoxicity of compound 1c versus compound 1, it was assessed whether this salt substitution alters cellular uptake or retention over time. SKOV3 cells were incubated for up 24 hours in the presence of either compound 1 or 1c (as previously described). At defined time intervals (FIG. 5) the media was aspirated, replaced with sterile PBS, and cells imaged for fluorescence (Ex 405 nm/Em 660 nm) using a Cytation 3 Multimode Plate Reader (Biotek). After 24 hours the media was aspirated, replaced with fresh media and the loss of cellular fluorescence similarly monitored. All images (minimum 100 cells per time point) were then quantitatively analysed (Gen5.0 software) and an average fluorescence/cell/time point determined. Average fluorescence measurements were normalised against the maximum average value measured for each photosensitizer, and plotted as percent total fluorescence (mean±SD) overtime.
The uptake and retention of compounds 1 and 2 was compared in SKOV3 cancer cells over a 48 hour period. SKOV3 cells were incubated for up 24 hours in the presence of either compound 1 or 2 (as previously described). At defined time intervals (FIG. 6) the media was aspirated, replaced with sterile PBS, and cells imaged for fluorescence (Ex 405 nm/Em 660 nm) using a Cytation 3 Multimode Plate Reader (Biotek). After 24 hours the media was aspirated, replaced with fresh media and the loss of cellular fluorescence similarly monitored. All images (minimum 100 cells per time point) were then quantitatively analysed (Gen5.0 software) and an average fluorescence/cell/time point determined. Average fluorescence measurements were normalised against the maximum average value measured for each photosensitizer, and plotted as percent total fluorescence (mean±SD) over time.
Phyllochlorin was functionalised with saccharidyl groups (glucose or mannose) using various configurations, and the effects on rate of uptake by cells assessed over a 4 hour incubation period as above. The rate of uptake of saccharidyl-conjugated phyllochlorin analogues exceeded that of unconjugated compound 2 (examples shown in FIG. 7); after 2 hours, saccharidyl-conjugated phyllochlorin analogues (compounds 6, 8 and 17) had reached 57-68% of their maximal uptake compared to 37% for compound 2 (FIG. 7A). By 4 hours total uptake was similar, and there was no apparent difference in cellular distribution between glucose (compounds 6 and 8) and mannose (compound 17) linked species (FIG. 7B).

[4] = system: 4T1 murine breast cancer cells; experiment: Tumour localisation and retention, model 1 (subcutaneous 4T1 tumours); assay type: in vivo, Balb/C wild type mice; conditions: 0.1 mg/kg IT, primary breast tumours, IVIS fluorescence
Description: Model 1 used Balb/C wild type mice implanted subcutaneously with 10^4×4T1 murine breast cancer cells. When tumours reached a palpable size (˜3-6 mm diameter) mice received compound 6 by either oral gavage (ORAL: 2.5 mg/kg), intravenous injection (IV: 1.0 mg/kg), or intratumoral injection (IT: 1.0 mg/kg in […]). To establish compound 6 localisation, mice were imaged using an IVIS Lumina III In Vivo Imaging System (Perkin Elmer) to detect fluorescence at 660 nm when illuminated under blue (400-460 nm) light.
In a second experiment, the localisation of compound 6 at 24 hours post-administration was compared to that of Talaporfin sodium and 5-Aminolevulinic acid (5-ALA), with all compounds injected at 0.1 mg/kg IT. Fluorescence measurements were made using an IVIS Lumina III instrument (as above).

[5] = Homo sapiens, SK-OV-3, light or radiation study

Structure (SMILES) | Cellular Toxicity: Dark toxicity IC10 [3] [µM] | Singlet Oxygen Production (slope) 1O2 [1] | IC90 [2, 5] [nM] | further results
C=Cc1c(C)c2cc3nc(c(C)c4cc(C)c(cc5nc(cc1[nH]2)C(C)=C5CC)[nH]4)[C@@H](CCC(=O)O)[C@@H]3C [Compound 1, phyllochlorin sodium salt] | 21.96 |  |  | Singlet Oxygen Production (slope) 1O2 ([1]; sodium salt): 1445.0; IC90 ([2]; sodium salt): 350 nM; Uptake and clearance, comparison of the two salt forms (SKOV3 cells): no significant difference; Fluorescence lost from cells (SKOV3 cells; SKOV3, within 4 hours after replacing media): 80%
C=Cc1c(C)c2cc3nc(c(C)c4cc(C)c(cc5nc(cc1[nH]2)C(C)=C5CC)[nH]4)[C@@H](CCC(=O)O)[C@@H]3C [Compound 1c, phyllochlorin choline salt] | 58.01 | 1229.0 |  | IC90 [2]: 210 nM; Uptake and clearance, comparison of the two salt forms (SKOV3 cells): no significant difference
C=Cc1c(C)c2cc3nc(c(C)c4cc(C)c(cc5nc(cc1[nH]2)C(C)=C5CC)[nH]4)[C@@H](CCC(=O)OC)[C@@H]3C [Compound 2, phyllochlorin methyl ester] | 39.62 | 2141.0 | 260 | Percent of maximal uptake (SKOV3 cells; SKOV3, after 2 hours incubation): 37%; Compound remaining within cells (SKOV3 cells; SKOV3, after 24 hours clearance): > 50%
NCC(=O)CCC(=O)O [Compound 5-ALA, 5-Aminolevulinic acid, reference compound] |  |  |  | Tumour localisation at 24 hours post-administration [4]: could not be accurately detected
C=Cc1c(C)c2cc3nc(c(C)c4cc(C)c(cc5nc(cc1[nH]2)C(C)=C5CC)[nH]4)[C@@H](CCC(=O)N(C)CCOCCO[C@@H]1O[C@H](CO)[C@@H](O)[C@H](O)[C@H]1O)[C@@H]3C [Compound 14, 3-((7S,8S)-18-ethyl-2,5,8,12,17-pentamethyl-13-vinyl-7H,8H-porphyrin-7-yl)-N-methyl-N-(2-(2-(((2R,3R,4S,5S,6R)-3,4,5-trihydroxy-6-(hydroxymethyl)tetrahydro-2H-pyran-2-yl)oxy)ethoxy)ethyl)propanamide] | 22.79 | 1293.0 | 170 | 
C=Cc1c(C)c2cc3nc(c(C)c4cc(C)c(cc5nc(cc1[nH]2)C(C)=C5CC)[nH]4)[C@@H](CCC(=O)N(C)CCCO[C@@H]1O[C@H](CO)[C@@H](O)[C@H](O)[C@H]1O)[C@@H]3C [Compound 15, 3-((7S,8S)-18-ethyl-2,5,8,12,17-pentamethyl-13-vinyl-7H,8H-porphyrin-7-yl)-N-methyl-N-(3-(((2R,3R,4S,5S,6R)-3,4,5-trihydroxy-6-(hydroxymethyl)tetrahydro-2H-pyran-2-yl)oxy)propyl)propanamide] | 14.60 | 976.4 | 230 | 
C=Cc1c(C)c2cc3nc(c(C)c4cc(C)c(cc5nc(cc1[nH]2)C(C)=C5CC)[nH]4)[C@@H](CCC(=O)N(C)CCCS[C@H]1O[C@H](CO)[C@@H](O)[C@H](O)[C@@H]1O)[C@@H]3C [Compound 16, phyllochlorin α-D-1-thiomannose-N-methylpropylamide conjugate] | 28.64 | 884.1 | 250 | 
C=Cc1c(C)c2cc3nc(c(C)c4cc(C)c(cc5nc(cc1[nH]2)C(C)=C5CC)[nH]4)[C@@H](CCC(=O)N(C)CCCS[C@@H]1O[C@H](CO)[C@@H](O)[C@H](O)[C@@H]1O)[C@@H]3C [Compound 17, phyllochlorin β-D-1-thiomannose-N-methylpropylamide conjugate] | 76.27 | 1265.0 | 220 | 
C=Cc1c(C)c2cc3nc(c(C)c4cc(C)c(cc5nc(cc1[nH]2)C(C)=C5CC)[nH]4)[C@@H](CCC(=O)N(C)CCOCCO)[C@@H]3C [Compound 18, 3-((7S,8S)-18-ethyl-2,5,8,12,17-pentamethyl-13-vinyl-7H,8H-porphyrin-7-yl)-N-(2-(2-hydroxyethoxy)ethyl)-N-methylpropanamide] | 32.30 | 1060.0 | 100 | 
C=Cc1c(C)c2cc3nc(c(C)c4cc(C)c(cc5nc(cc1[nH]2)C(C)=C5CC)[nH]4)[C@@H](CCC(=O)NCCOCCO[C@@H]1O[C@H](CO)[C@@H](O)[C@H](O)[C@H]1O)[C@@H]3C [Compound 20, 3-((7S,8S)-18-ethyl-2,5,8,12,17-pentamethyl-13-vinyl-7H,8H-porphyrin-7-yl)-N-(2-(2-(((2R,3R,4S,5S,6R)-3,4,5-trihydroxy-6-(hydroxymethyl)tetrahydro-2H-pyran-2-yl)oxy)ethoxy)ethyl)propanamide] | 46.23 | 1210.0 | 230 | 
C=Cc1c(C)c2cc3nc(c(CC(=O)N[C@@H](CC(=O)O)C(=O)O)c4[nH]c(cc5nc(cc1[nH]2)C(C)=C5CC)c(C)c4C(=O)O)[C@@H](CCC(=O)O)[C@@H]3C [Talaporfin sodium, mono-L-aspartyl chlorin e6, reference compound] | 11.10 | 736.7 | 22800 | 
